Here are results for three compounds from ChEMBL document CHEMBL1157653, “Gentisides A and B, two new neuritogenic compounds from the traditional Chinese medicine Gentiana rigescens Franch” (Bioorg Med Chem, 2010).

Calls of active or inactive are those of the source. No cut-off for these calls is given here.

Series [1] has as its system PC-12. Briefly: Induction of neuritogenic activity in rat PC12 cells assessed as long neurite outgrowths at 1 to 30 uM after 48 hrs. It counts as functional, cell-based.
Series [2] concerns PC-12. Briefly: Induction of neuritogenic activity in rat PC12 cells assessed as long neurite outgrowths after 48 hrs. The format is functional, cell-based.
Series [3] deals with PC-12. Nature of the series: Cytotoxicity against rat PC12 cells at 1 to 30 uM after 48 hrs. The conditions noted are these: pc-12, 48 h. The format is cell-based.
Series [4] concerns PC-12. Briefly: Induction of neuritogenic activity in rat PC12 cells assessed as long neurite outgrowths at 30 uM after 48 hrs. The format is functional.
Series [5] deals with PC-12. Nature of the series: Cytotoxicity against rat PC12 cells at 100 uM after 48 hrs. It counts as cell-based. The conditions noted are these: pc-12, 48 h.
Series [6] has as its system PC-12. Nature of the series: Induction of neuritogenic activity in rat PC12 cells assessed as long neurite outgrowths at 100 uM after 48 hrs. It counts as functional, cell-based.
Series [7] deals with PC-12. Nature of the series: Potentiation of NGF-induced neuritogenic activity in rat PC12 cells assessed as neurite outgrowths at 1 to 30 uM after 48 hrs. The format is functional, cell-based.
Series [8] has as its system PC-12. Nature of the series: Induction of neuritogenic activity in rat PC12 cells assessed as appearance of long multipolar and bipolar neurite outgrowths at 30 uM after 48 hrs by phase contrast microscopy. The format is functional, cell-based.

`O=C(O)c1cccc(O)c1O`: the result in series [1] was inactive.

Regarding `CC(C)CCCCCCCCCCCCCCCCCCCOC(=O)c1cccc(O)c1O` [GENTISIDE A], the Activity entry in series [2] was “Dose-dependent effect”; in series [3], “Non-toxic”; in series [4], 82%; in series [5], “Toxic”. Further, the outcome in series [6] and in series [8] was Active. For the same compound, in series [7], the result was inactive.

Consider `CC[C@H](C)CCCCCCCCCCCCCCCCCCCOC(=O)c1cccc(O)c1O` [GENTISIDE B], for which the Activity result in series [2] was “Dose-dependent effect”; in series [3], “Non-toxic”; in series [4], 87%; in series [5], “Toxic”. The result in series [6] and in series [8] was Active. The outcome in series [7] was inactive.
